Patent US11118162B2, “Cytopheresis cartridges and use thereof” (SeaStar Medical, Inc., priority 2010, dated 2021)

Columns and labels:
[1] = system: leukocytes in porcine blood; experiment: Microscopic flow chamber: leukocyte interaction with polysulfone SCD membrane; format: cell-based, pig
Description: A custom microscopic flow chamber system was set up to enable microscopic analysis of leukocyte interaction with the SCD membrane. The flow chamber consisted of a polycarbonate housing with an inlet and outlet for perfusion. A polysulfone membrane was affixed to the polycarbonate block with a gasket which directed shear flow. The thickness of the gasket (100 μm) along with the length (2 cm) and the width of the channel (1.5 mm) determined the volume of the flow chamber. Microscopic imaging was accomplished through an optical window made up of a cover glass affixed to the bottom of the polycarbonate block. Either isolated blood or purified leukocytes were used for this study.
Isolated blood was prone to activation from excessive handling. […] Blood passed through the flow chamber at a rate of 20 μL/min with calculated shear forces between 1-10 dynes/cm^2. […]
Microscopic analysis of cell capture events was accomplished using either a Zeiss Axiovert 200M or Axio-Observer epifluorescence microscope equipped with a microscope stage-top incubator to control environmental temperature and CO2 content. Fluorescence images were acquired with either a Zeiss MRm3 or an Icc1 camera at a frequency of 1 frame/second for 5 minutes, for analysis of leukocyte/membrane interaction, and at 1 frame/minute for 1 hour sequences, for analysis of long term leukocyte attachment. […]

[2] = system: leukocytes in human whole blood; experiment: In vitro leukocyte activation in heparinized human whole blood; format: cell-based; conditions: for Lactoferrin: n = 4; for Elastase: n = 5
Description: Heparinized human whole blood was added to tubes with or without lipopolysaccharide (LPS) (10 μg/mL) or formyl-Methionyl-Leucyl-Phenylalanine (fMLF, 50 nM). […] The release of IL-6, IL-8, or IL-10 was measured using commercially available ELISA kits from R&D Systems. The release of elastase was measured using a commercially available ELISA kit from Bender MedSystems. The release of lactoferrin was measured using a commercially available ELISA kit from EMD Chemicals. […] Samples were incubated for various times at 37° C. and 5% CO2. CD11b activation was measured using an FITC-conjugated mouse anti-human antibody (AbD Serotech) and evaluated on an Accuri C6 flow cytometer.

O=C(O)CC(O)(CC(=O)O)C(=O)O [Citrate]
Persistent leukocyte adhesion events ([1]; 1 hour sequences, LPS and citrate versus LPS only): far fewer
Rolling events ([1]; LPS and citrate treated blood): observed increase

heparin
Lactoferrin ([2]; Baseline): 8.47 mg/mL
Elastase ([2]; Baseline): 2.73 mg/mL
Lactoferrin ([2]; Stimulated (LPS, fMLF)): 12.42 mg/mL
Elastase ([2]; Stimulated (LPS, fMLF)): 4.52 mg/mL
